Results published in patent US7160919B2, “C7 lactyloxy-substituted taxanes” (Florida State University Research Foundation, Inc., priority 2004, dated 2007).

Experiments:
HCT116 cells = experiment: In vitro cytotoxicity, cell colony formation assay (HCT116); type: cell-based; conditions: colonies counted after 7 days, concentration producing 50% inhibition of colony formation
Method: (§1) Four hundred cells (HCT116) were plated in 60 mm Petri dishes containing 2.7 mL of medium (modified McCoy's 5a medium containing 10% fetal bovine serum and 100 units/mL penicillin and 100 µg/mL streptomycin). The cells were incubated in a CO2 incubator at 37° C. for 5 h for attachment to the bottom of Petri dishes. The compound identified in Example 1 was made up fresh in medium at ten times the final concentration, and then 0.3 mL of this stock solution was added to the 2.7 mL of medium in the dish. The cells were then incubated with drugs for 72 h at 37° C. At the end of incubation the drug-containing media were decanted, the dishes were rinsed with 4 mL of Hank's Balance Salt Solution (HBSS), 5 mL of fresh medium was added, and the dishes were returned to the incubator for colony formation. The cell colonies were counted using a colony counter after incubation for 7 days. Cell survival was calculated and the values of IC50 (the drug concentration producing 50% inhibition of colony formation) were determined for each tested compound.
(§2) The assays described above were repeated using the compound identified in Example 2. The results of these assays are tabulated below in comparison with data for paclitaxel and docetaxel.

VM46 colon cell line = experiment: In vitro cytotoxicity, cell colony formation assay (VM46); type: cell-based; conditions: 72 h drug incubation, colonies counted after 7 days, concentration producing 50% inhibition of colony formation
Method: as §1
An identical assessment was carried out using the VM46 colon cell line.
as §2

[1] = Homo sapiens, HCT-116, 72 h drug incubation

Structure (SMILES)	IC50 (HCT116 cells; [1])	IC50 (VM46 colon cell line)	melting point	IC50 (HCT116 cells; 72 h drug incubation)
CC(=O)O[C@@]12CO[C@@H]1C[C@H](OC(=O)[C@H](C)O)[C@@]1(C)C(=O)[C@H](O)C3=C(C)[C@@H](OC(=O)[C@H](O)[C@@H](NC(=O)OC(C)(C)C)c4ccco4)C[C@@](O)([C@@H](OC(=O)c4ccccc4)C12)C3(C)C (stereo partly drawn) [7-((S)-(−)-2-hydroxyloxypropionyl)-2-furyl-Docetaxel]	0.17 nM	2.5 nM	174 to 176 °C	–
CC(=O)O[C@@]12CO[C@@H]1C[C@H](OC(=O)[C@@H](C)O)[C@@]1(C)C(=O)[C@H](O)C3=C(C)[C@@H](OC(=O)[C@H](O)[C@@H](NC(=O)OC(C)(C)C)c4ccco4)C[C@@](O)([C@@H](OC(=O)c4ccccc4)C12)C3(C)C (stereo partly drawn) [7-((R)-(+)-2-hydroxyloxypropionyl)-2-furyl-Docetaxel]	0.05 nM	4.22 nM	–	–
CC(=O)O[C@H]1C(=O)[C@@]2(C)[C@H]([C@H](OC(=O)c3ccccc3)[C@]3(O)C[C@H](OC(=O)[C@H](O)[C@@H](NC(=O)c4ccccc4)c4ccccc4)C(C)=C1C3(C)C)[C@]1(OC(C)=O)CO[C@@H]1C[C@@H]2O [Paclitaxel, paclitaxel, reference compound]	2.1 nM	20 nM	–	–
CC(=O)O[C@@]12CO[C@@H]1C[C@H](O)[C@@]1(C)C(=O)[C@H](O)C3=C(C)[C@@H](OC(=O)[C@H](O)[C@@H](NC(=O)OC(C)(C)C)c4ccccc4)C[C@@](O)([C@@H](OC(=O)c4ccccc4)[C@H]21)C3(C)C [Docetaxel, docetaxel, reference compound]	–	6.7 nM	–	0.6 nM
